Test results as given in patent publication US12583855B2, “RET selective inhibitor, preparation method therefor and use thereof” (SHOUYAO HOLDINGS (BEIJING) CO., LTD., priority 2019, dated 2026).
Changes are numbered by the printed parent chain. pIC50: −log10 of the molar value.

Key:
Type in all cases: biochemical
RET^V804M = target: T1, RET^V804M (Homo sapiens, UniProt P07949, V804M); test: In vitro enzymatic activity assay on RET^V804M (HTRF); conditions: GST-RET^V804M (658-1114 aa) 0.02 nM, ATP 1.5 μM
T1 construct: GST-RET^V804M (658-1114 aa, final concentration of 0.02 nM)
T1 sequence (P07949 658-1114 V804M): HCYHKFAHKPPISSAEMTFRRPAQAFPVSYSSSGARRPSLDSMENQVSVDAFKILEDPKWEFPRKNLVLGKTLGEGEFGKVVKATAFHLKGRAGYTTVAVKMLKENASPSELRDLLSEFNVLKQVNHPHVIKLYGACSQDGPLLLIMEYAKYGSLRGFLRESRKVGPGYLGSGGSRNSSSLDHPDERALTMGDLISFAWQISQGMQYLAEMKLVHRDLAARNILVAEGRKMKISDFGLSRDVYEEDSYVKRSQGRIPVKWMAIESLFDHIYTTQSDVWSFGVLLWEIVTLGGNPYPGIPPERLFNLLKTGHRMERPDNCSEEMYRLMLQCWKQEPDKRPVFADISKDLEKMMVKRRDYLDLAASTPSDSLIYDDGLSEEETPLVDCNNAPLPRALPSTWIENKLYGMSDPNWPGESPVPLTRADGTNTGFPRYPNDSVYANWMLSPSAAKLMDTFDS

VEGFR2 = VEGFR2 (Homo sapiens, UniProt P35968); test: In vitro enzymatic activity assay on VEGFR2 (HTRF); conditions: GST-VEGFR2 0.1 nM, ATP 2.5 μM
Procedure: 3. n Vitro Enzymatic Activity Assay for Compounds on VEGFR2
The compounds were diluted 5-fold with 100% DMSO starting from 1 mM (7 concentrations in total), and 2 μL of each concentration was added to 48 μL of reaction buffer (50 mM HEPES pH 7.5, 0.1 mM Na3VO4, 5 mM MgCl2, 1 mM MnCl2, 1 mM DTT, 0.001% Tween 20, and 100 μg/ml BSA) for dilution and mixing. 2.5 μL of compounds and 5 μL of GST-VEGFR2 (final concentration of 0.1 nM) were added to a 384-well plate (OptiPlate-384, purchased from PerkinElmer), the mixture was mixed by centrifugation, and 2.5 μL of ATP (final concentration of 2.5 μM) and TK Peptide Substrate mixture (final concentration of 1 μM, purchased from Cisbio) were added to start the reaction, with a total reaction volume of 10 μL. The 384-well plate was placed in an incubator and reacted at 23° C. for 1.5 h before the reaction was stopped by the addition of 5 μL of TK Antibody (purchased from Cisbio) and 5 μL of Streptavidin-XL665 (purchased from Cisbio). After further incubation in the incubator for 1 h. fluorescence values (excitation at 320 nm, detecting emitted light at 665 nm and 620 nm, and a ratio of the two as an enzyme activity signal) were read on Envision (purchased from PerkinElmer). The enzymatic activity signal of VEGFR2 was measured at 7 concentrations for each compound and the data were calculated using GraphPad Prism software to obtain the IC50 value for the compound.

RET^WT = target: T2, RET^WT (Homo sapiens, UniProt P07949); test: In vitro enzymatic activity assay on RET^WT (HTRF); conditions: GST-RET^WT (658-1114 aa) 0.5 nM, ATP 25 μM
T2 construct: GST-RET^WT (658-1114 aa, final concentration of 0.5 nM)
T2 sequence (P07949 658-1114): T1 sequence (P07949 658-1114 V804M) with M147V
Procedure: 1. In Vitro Enzymatic Activity Assay for Compounds on RET^WT
The compounds were diluted 5-fold with 100% DMSO starting from 0.2 mM (7 concentrations in total), and 2 μL of each concentration was added to 48 μL of reaction buffer (50 mM HEPES pH7.5, 0.1 mM Na3VO4, 5 mM MgCl2. 1 mM DTT, 0.001% Tween 20, and 100 μg/ml BSA) for dilution and mixing.
The 384-well plate was placed in an incubator and reacted at 23° C. for 2 h before the reaction was stopped by the addition of 5 μL of TK Antibody (purchased from Cisbio) and 5 μL of Streptavidin-XL665 (purchased from Cisbio). […] The enzymatic activity signal of RET^WT was measured at 7 concentrations for each compound and the data were calculated using GraphPad Prism software to obtain the IC50 value for the compound.

Sequence of VEGFR2 (P35968 20-1356): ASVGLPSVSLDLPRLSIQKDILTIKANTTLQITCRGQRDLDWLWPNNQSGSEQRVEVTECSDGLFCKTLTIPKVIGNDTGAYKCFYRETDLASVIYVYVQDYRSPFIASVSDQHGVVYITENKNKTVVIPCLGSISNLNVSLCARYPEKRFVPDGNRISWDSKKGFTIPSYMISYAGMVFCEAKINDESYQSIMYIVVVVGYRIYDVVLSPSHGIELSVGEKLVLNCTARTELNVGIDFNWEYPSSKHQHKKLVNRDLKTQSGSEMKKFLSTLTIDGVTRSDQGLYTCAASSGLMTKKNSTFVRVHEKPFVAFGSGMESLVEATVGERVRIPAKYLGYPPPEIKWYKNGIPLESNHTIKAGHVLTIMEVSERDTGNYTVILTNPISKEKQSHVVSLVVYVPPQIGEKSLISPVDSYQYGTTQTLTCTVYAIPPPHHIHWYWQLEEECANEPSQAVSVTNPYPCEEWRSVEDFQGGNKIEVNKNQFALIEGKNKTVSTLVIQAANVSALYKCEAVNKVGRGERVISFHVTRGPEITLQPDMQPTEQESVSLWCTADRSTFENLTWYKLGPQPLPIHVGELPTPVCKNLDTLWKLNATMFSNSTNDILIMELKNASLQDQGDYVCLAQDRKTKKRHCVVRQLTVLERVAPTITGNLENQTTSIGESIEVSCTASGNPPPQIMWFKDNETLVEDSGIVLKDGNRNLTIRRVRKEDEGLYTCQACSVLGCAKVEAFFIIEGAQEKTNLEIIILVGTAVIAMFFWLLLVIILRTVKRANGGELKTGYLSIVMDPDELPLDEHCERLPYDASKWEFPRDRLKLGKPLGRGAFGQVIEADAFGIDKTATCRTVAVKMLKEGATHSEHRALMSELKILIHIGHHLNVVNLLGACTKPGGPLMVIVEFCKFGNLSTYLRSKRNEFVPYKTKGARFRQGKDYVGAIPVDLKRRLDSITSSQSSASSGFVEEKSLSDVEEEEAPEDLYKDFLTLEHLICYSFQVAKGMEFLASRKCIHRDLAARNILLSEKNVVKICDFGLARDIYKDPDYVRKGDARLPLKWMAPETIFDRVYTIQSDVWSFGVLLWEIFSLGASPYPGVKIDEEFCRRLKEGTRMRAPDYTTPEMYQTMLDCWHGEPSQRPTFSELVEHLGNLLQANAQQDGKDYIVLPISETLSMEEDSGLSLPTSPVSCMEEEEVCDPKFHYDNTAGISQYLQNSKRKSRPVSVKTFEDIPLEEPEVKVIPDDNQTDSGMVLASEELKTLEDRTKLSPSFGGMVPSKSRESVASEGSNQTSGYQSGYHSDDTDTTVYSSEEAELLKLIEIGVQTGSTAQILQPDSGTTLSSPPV

Compound	pIC50 (RET^V804M)	pIC50 (VEGFR2)	pIC50 (RET^WT)
C=CC(=O)N1CCN(c2ccc(-c3cc(-c4cnn(C)c4)cn4ncc(C#N)c34)cn2)CC1 [Example 1, 4-(6-(4-acryloylpiperazin-1-yl)pyridin-3-yl)-6-(1-methyl-1Hpyrazol-4-yl)pyrazolo[1,5-a]pyridine-3-carbonitrile]	8.92	8.35	9.45
COc1ccc(CN2C3CC2CN(c2ccc(-c4cc(N5CC(C#N)C5)cn5ncc(C#N)c45)cn2)C3)cn1 [Example 13, 6-(3-cyanoazetidin-1-yl)-4-(6-(6-((6-methoxypyridin-3-yl)methyl)-3,6-diazabicyclo[3.1.1]heptan-3-yl)pyridin-3-yl)pyrazolo[1,5-a]pyridine-3-carbonitrile]	9.48	8.46	9.38
COc1ccc(CN2C3CC2CN(c2ccc(-c4cc(N5CC6(COC6)C5)cn5ncc(C#N)c45)cn2)C3)cn1 [Example 14, 4-(6-(6-((6-methoxypyridin-3-yl)methyl)-3,6-diazabicyclo[3.1.1]heptan-3-yl)pyridin-3-yl)-(2-oxa-azaspiro[3.3]hepta-6-yl)pyrazolo[1,5-a]pyridine-3-carbonitrile]	9.20	8.81	9.12
COc1ccc(CN2C3CC2CN(c2ccc(-c4cc(N5CC(O)(C(F)(F)F)C5)cn5ncc(C#N)c45)cn2)C3)cn1 [Example 28, 6-(3-hydroxy-3-(trifluoromethyl)azetidin-1-yl)-4-(6-(6-((6-methoxypyridin-3-yl)methyl)-3,6-diazabicyclo[3.1.1]heptan-3-yl)pyridin-3-yl)pyrazolo[1,5-a]pyridine-3-carbonitrile]	8.60	–	9.12
COc1ccc(CN2C3CC2CN(c2ccc(-c4cc(N5CC6(CCOCC6)C5)cn5ncc(C#N)c45)cn2)C3)cn1 [Example 30, 4-(6-(6-((6-methoxypyridin-3-yl)methyl)-3,6-diazabicyclo[3.1.1]heptan-3-yl)pyridin-3-yl)-6-(7-oxa-2-azaspiro[3.5]nonan-2-yl) pyrazolo[1,5-a]pyridine-3-carbonitrile]	8.95	–	9.17
COc1ccc(CN2CCN(c3ccc(-c4cc(N5CC(OC)C5)cn5ncc(C#N)c45)cn3)CC2)cn1 [Example 33, 6-(3-methoxyazetidin-1-yl)-4-(6-(4-((6-methoxypyridin-3-yl)methyl)piperazin-1-yl)pyridin-3-yl)pyrazolo[1,5-a]pyridine-3-carbonitrile]	8.55	8.12	9.03
CS(=O)(=O)c1ccc(CN2C3CC2CN(c2ccc(-c4cc(N5CC(C#N)C5)cn5ncc(C#N)c45)cn2)C3)cc1 [Example 35, 6-(3-cyanoazetidin-1-yl)-4-(6-(6-(4-(methylsulfonyl)benzyl)-3,6-diazabicyclo[3.1.1]heptan-3-yl)pyridin-3-yl)pyrazolo[1,5-a]pyridine-3-carbonitrile]	8.83	8.02	9.76
CS(=O)(=O)c1ccc(CN2C3CC2CN(c2ccc(-c4cc(N5CC(F)(F)C5)cn5ncc(C#N)c45)cn2)C3)cc1 [Example 36, 6-(3,3-difluoroazetidin-1-yl)-4-(6-(6-(4-(methylsulfonyl)benzyl)-3,6-diazabicyclo [3.1.1]heptan-3-yl)pyridin-3-yl)pyrazolo[1,5-a]pyridine-3-carbonitrile]	8.59	7.77	9.75
COC/C=C/C(=O)N1C2CC1CN(c1ccc(-c3cc(-c4cnn(C)c4)cn4ncc(C#N)c34)cn1)C2 [Example 61, (E)-4-(6-(6-(4-methoxybut-2-enoyl)-3,6-diazabicyclo[3.1.1]heptan-3-yl)pyridin-3-yl)-6-(1-methyl-1Hpyrazol-4-yl)pyrazolo[1,5-a]pyridine-3-carbonitrile]	8.20	7.74	9.11
CSc1ccc(CN2C3CC2CN(c2ccc(-c4cc(-c5cnn(C(F)F)c5)cn5ncc(C#N)c45)cn2)C3)nc1 [Example 66, 6-(1-(difluoromethyl)-1Hpyrazol-4-yl)-4-(6-(6-((5-(methylthio)pyridin-2-yl)methyl)-3,6-diazabicyclo[3.1.1]heptan-3-yl)pyridin-3-yl)pyrazolo[1,5-a]pyridine-3-carbonitrile]	–	8.53	9.57
CS(=O)(=O)c1ccccc1CN1C2CC1CN(c1ccc(-c3cc(N4CC(F)(F)C4)cn4ncc(C#N)c34)cn1)C2 [Example 67, 6-(3,3-difluoroazetidin-1-yl)-4-(6-(6-(2-(methylsulfonyl)benzyl)-3,6-diazabicyclo [3.1.1]heptan-3-yl)pyridin-3-yl)pyrazolo[1,5-a]pyridine-3-carbonitrile]	8.40	7.09	9.33
CS(=O)(=O)c1ccc(CN2C3CCC2CN(c2ccc(-c4cc(-c5cnn(C(F)F)c5)cn5ncc(C#N)c45)cn2)C3)cc1 [Example 69, 6-(1-difluoromethyl-1Hpyrazol-4-yl)-4-(6-(8-(4-(methylsulfonyl)benzyl)-3,8-diazabicyclo[3.2.1]octan-3-yl)pyridin-3-yl)pyrazolo[1,5-a]pyridine-3-carbonitrile]	8.26	7.20	9.15
CS(=O)(=O)c1ccc(CN2C3CC2CN(c2cnc(-c4cc(-c5cnn(C(F)F)c5)cn5ncc(C#N)c45)cn2)C3)cc1 [Example 70, 4-(5-(6-(4-(methylsulfonyl)benzyl)-3,6-diazabicyclo[3.1.1]heptan-3-yl)pyrazin-2-yl)-6-(1-(difluoromethyl)-1Hpyrazol-4-yl) pyrazolo[1,5-a] pyridine-3-carbonitrile]	8.60	7.25	9.49
CSc1ccc(CN2C3CC2CN(c2ccc(-c4cc(-c5cnn(C(F)F)c5)cn5ncc(C#N)c45)cn2)C3)cc1 [Example 82, 6-(1-difluoromethyl-1Hpyrazol-4-yl)-4-(6-(6-(4-(methylthio)benzyl)-3,6-diazabicyclo[3.1.1]heptan-3-yl)pyridin-3-yl)pyrazolo[1,5-a]pyridine-3-carbonitrile]	–	9.13	9.87
N#Cc1cnn2cc(-c3cnn(C(F)F)c3)cc(-c3ccc(N4CC5CC(C4)N5Cc4ccc([N+](=O)[O-])cc4)nc3)c12 [Example 83, 4-(6-(6-(4-nitrobenzyl)-3,6-diazabicyclo[3.1.1]heptan-3-yl)pyridin-3-yl)-6-(1-(difluoromethyl)-1Hpyrazol-4-yl)pyrazolo[1,5-a]pyridine-3-carbonitrile]	–	8.34	9.92
